Source: US20070032529A1, “Pyrazole compounds and their use as antidiabetes agents” (Japan Tobacco Inc., priority 2005, published 2007)
Like-named read-outs stand apart in the source and are kept apart here.

Target: T1, recombinant human liver glycogen phosphorylase (Homo sapiens, UniProt P06737)
T1 construct: made in house; host or cells: Sf9 insect cells (crude homogenate, diluted, used as the enzyme solution)
T1 sequence (P06737 1-847): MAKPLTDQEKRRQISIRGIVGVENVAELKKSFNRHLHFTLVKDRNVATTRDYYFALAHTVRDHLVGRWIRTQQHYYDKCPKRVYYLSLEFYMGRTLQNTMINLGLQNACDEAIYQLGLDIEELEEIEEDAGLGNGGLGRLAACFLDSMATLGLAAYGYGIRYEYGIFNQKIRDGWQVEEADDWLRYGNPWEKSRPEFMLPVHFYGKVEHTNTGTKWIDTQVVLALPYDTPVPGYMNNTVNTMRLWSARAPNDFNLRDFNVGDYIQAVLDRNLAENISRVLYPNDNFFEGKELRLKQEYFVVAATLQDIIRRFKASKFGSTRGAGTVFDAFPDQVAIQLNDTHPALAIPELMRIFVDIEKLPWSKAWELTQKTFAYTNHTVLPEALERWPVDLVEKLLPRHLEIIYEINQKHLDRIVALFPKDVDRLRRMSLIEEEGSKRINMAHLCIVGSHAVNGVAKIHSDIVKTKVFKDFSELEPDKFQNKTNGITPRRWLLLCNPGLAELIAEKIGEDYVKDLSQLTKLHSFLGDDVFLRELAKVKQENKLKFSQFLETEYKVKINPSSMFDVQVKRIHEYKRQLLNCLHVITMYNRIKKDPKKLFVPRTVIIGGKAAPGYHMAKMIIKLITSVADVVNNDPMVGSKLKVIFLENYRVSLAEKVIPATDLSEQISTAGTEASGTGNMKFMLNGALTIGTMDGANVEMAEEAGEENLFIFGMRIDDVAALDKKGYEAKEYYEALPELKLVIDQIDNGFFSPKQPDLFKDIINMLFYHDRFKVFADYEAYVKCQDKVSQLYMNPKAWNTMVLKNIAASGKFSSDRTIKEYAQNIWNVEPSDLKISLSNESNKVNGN
Assay: Measuring liver glycogen phosphorylase activity (forward reaction system, NADPH absorbance at 340 nm)
Format: biochemical
Details: for inhibition at 0.1 µM / inhibition rate (%) at a certain concentration: compound concentration 100 nmol (in parentheses); for inhibition at 1 µM: compound concentration 1000 nmol (in parentheses)
Method: [Pharmacological Test] 1. Exemplary Test (1) Method for Measuring Liver Glycogen Phosphorylase Activity
The measurement of glycogen phosphorylase activity was carried out by a method using the forward reaction system.
The measurement of glycogen phosphorylase activity using the forward reaction system was carried out as follows. Glucose-1-phosphate prepared from glycogen by glycogen phosphorylase was converted into glucono-δ-lactone 6-phosphate through transphosphorylation and dehydrogenation using phosphoglucomutase and glucose-6-phosphate dehydrogenase (G6PDH). NADPH generated from NADP during the dehydrogenation by G6PDH was detected.
A homogenate of the Sf9 cells which expressed exogenously recombinant human liver glycogen phosphorylase was diluted with 100 mmol/LBES buffer solution (pH 6.8, containing 2 mmol/L EDTA) and the dilution was used as the enzyme solution of human liver glycogen phosphorylase. As the substrate, a phosphate buffer (containing 16 mmol/L KH2PO4, 24 mmol/L Na2HPO4) was used. A mixture of 8 U/mL phosphoglucomutase and 60 U/mL G6PDH was prepared in BES buffer solution. Buffer solution (containing 1.4 mmol/L NADP, 30 mmol/L MgCl2, 8 μmol/L glucose-1,6-diphosphate, 8 mg/mL glycogen, 40 mmol/LBES, 0.8 mmol/L EDTA) for reaction and a glucose solution (containing 75 mmol/L glucose, 100 mmol/LBES, 2 mmol/L EDTA) were prepared individually. The test compound was dissolved in 1% DMSO solution.
The enzymatic reaction was begun by adding 20 μL of the recombinant human liver glycogen phosphorylase solution and 20 μL of the mixture of phosphoglucomutase and G6PDH to the mixture of 20 μL of the glucose solution, 20 μL of the substrate, 100 μL of the buffer solution for reaction and 20 μL of the test compound solution. As control, 1% DMSO solution was added instead of the test compound. The mixture without the substrate was used as blank. The absorbance at 340 nm was measured immediately after the reaction started. The absorbance at 340 nm was measured again after reacting at room temperature for 75 minutes. The enzymatic activity is a value obtained by subtracting the blank variation in absorbance over 75 minutes from the variation in absorbance over 75 minutes.
The inhibition rate (%) of the test compound was calculated by the expression “(1-enzymatic activity of test compound/enzymatic activity of control)×100.”
A linear equation was determined from the two concentration points with the 50% inhibition rate therebetween, and the IC50 value was calculated from the concentration at the intersection of the line with the 50% inhibition rate.
“IC50” in the tables indicates the above-described enzyme inhibitory activity with respect to liver glycogen phosphorylase, and the activity to inhibit liver glycogen phosphorylase was represented as ++ when the IC50 value (nmol/L) was less than 100 nmol/L, as + when the IC50 value was between 100 nmol/L and 300 nmol/L. When IC50 is 300 nmol/L or more, an inhibition rate (%) at a certain concentration of the compound (I) of the present invention is shown in Tables. For example, when the inhibition rate is 20% at a concentration of 300 nmol, the rate is described as 20% (300).

[1] = enzyme inhibitory activity with respect to liver glycogen phosphorylase, class symbols
[2] = figure in brackets (300), read-out: IC50 column: % value printed with (300)
[3] = human liver glycogen phosphorylase, class symbol
[4] = read-out: inhibition rate (%) at a certain concentration
[5] = compound concentration 300 nmol (in parentheses), read-out: inhibition rate (%) at a certain concentration

IC50 [1] [nM]	Structure (SMILES)	also measured
100 to 300	O=C(NCc1ccccc1)c1cc(NC(=O)c2cc(F)ccc2Cl)[nH]n1 [Example 4-8]	–
< 100	O=C(O)CNC(=O)c1ccc(CNC(=O)c2cc(NC(=O)c3cc(F)c(F)cc3Cl)[nH]n2)cc1 [Example 5-6]	–
100 to 300	Cc1cc(Cl)ccc1C(=O)Nc1cc(C(=O)NCc2ccccc2)n[nH]1 [Example 4-15]	–
< 100	O=C(NCCN1CCOCC1)c1cccc(CNC(=O)c2cc(NC(=O)c3cc(F)c(F)cc3Cl)[nH]n2)c1 [Example 5-11]	–

Continued, molecule first:

Structure (SMILES)	IC50 [1] [nM]	also measured
CN(C)c1cccc(CNC(=O)c2cc(NC(=O)c3cc(F)c(F)cc3Cl)[nH]n2)c1 [Example 3-34]	< 100	–
O=C(NCc1ccc(F)c(F)c1)c1cc(NC(=O)c2cc(F)c(F)cc2Cl)[nH]n1 [Example 1-22]	< 100	–
O=C(NCc1cccnc1)c1cc(NC(=O)c2sccc2Cl)[nH]n1 [Example 7-7]	–	inhibition at 0.3 µM [2]: 2.9%
CC(=O)Nc1ccccc1CNC(=O)c1cc(NC(=O)c2cc(F)c(F)cc2Cl)[nH]n1 [Example 6-20]	–	IC50 [3]: < 100 nM
CC(=Nc1ccccc1CNC(=O)c1cc(NC(=O)c2cc(F)c(F)cc2Cl)[nH]n1)N(C)C [Example 6-24]	–	IC50 [3]: < 100 nM
Cn1cccc1CNC(=O)c1cc(NC(=O)c2cc(F)c(F)cc2Cl)[nH]n1 [Example 1-58]	< 100	–
COC(=O)CNC(=O)c1ccc(CNC(=O)c2cc(NC(=O)c3cc(F)c(F)cc3Cl)[nH]n2)cc1 [Example 1-43]	< 100	–
Cc1ccc(S(=O)(=O)Nc2ccccc2CNC(=O)c2cc(NC(=O)c3cc(F)c(F)cc3Cl)[nH]n2)cc1 [Example 6-38]	–	IC50 [3]: < 100 nM
C[C@@H](NC(=O)c1cc(NC(=O)c2cc(F)c(F)cc2Cl)[nH]n1)c1ccccc1 [Example 2-20]	–	inhibition at 0.1 µM [4]: 43.1%
CCCCN(C(=O)c1cc(NC(=O)c2cc(F)c(F)cc2Cl)[nH]n1)C1CCN(C(C)=O)CC1 [Example 1-110]	< 100	–
O=C(NCc1cccc(Cl)c1)c1cc(NC(=O)c2cc(F)c(F)cc2Cl)[nH]n1 [Example 3-37]	< 100	–
CCc1nc(C)c(CNC(=O)c2cc(NC(=O)c3cc(F)c(F)cc3Cl)[nH]n2)o1 [Example 1-158]	< 100	–
CN(C)CCNC(=O)c1cc(NC(=O)c2cc(F)c(F)cc2Cl)[nH]n1 [Example 3-42]	–	inhibition at 0.3 µM [5]: 1.1%
O=C(NCc1ccc(Cl)s1)c1cc(NC(=O)c2cc(F)c(F)cc2Cl)[nH]n1 [Example 1-156]	< 100	–
CCN(Cc1ccncc1)C(=O)c1cc(NC(=O)c2cc(F)c(F)cc2Cl)[nH]n1 [Example 1-5]	< 100	–
CCCCCCc1nc(C)oc1CNC(=O)c1cc(NC(=O)c2cc(F)c(F)cc2Cl)[nH]n1 [Example 1-167]	< 100	–
CN(C(=O)c1cc(NC(=O)c2cc(F)c(F)cc2Cl)[nH]n1)c1cccc(C(=O)O)c1 [Example 2-14]	–	inhibition at 0.3 µM [5]: 37.5%
CC(C)OCCN(C(=O)c1cc(NC(=O)c2cc(F)c(F)cc2Cl)[nH]n1)C1CCCCC1 [Example 1-101]	< 100	–
CCCCN(C(=O)c1cc(NC(=O)c2cc(F)c(F)cc2Cl)[nH]n1)c1ccc(C(=O)OCC)cc1 [Example 4-40]	–	inhibition at 0.3 µM [5]: 3.6%
CN(C)CCN(C(=O)c1cc(NC(=O)c2cc(F)c(F)cc2Cl)[nH]n1)C1CCCCC1 [Example 3-44]	100 to 300	–
CN(C)c1nc(CNC(=O)c2cc(NC(=O)c3cc(F)c(F)cc3Cl)[nH]n2)cs1 [Example 1-57]	< 100	–
COc1cncc(OC)c1CNC(=O)c1cc(NC(=O)c2cc(F)c(F)cc2Cl)[nH]n1 [Example 3-51]	< 100	–

Structure (SMILES)	IC50 [1] [nM]	also measured
O=C(Nc1cc(C(=O)N2CCCCC2)n[nH]1)c1cc(F)c(F)cc1Cl [Example 3-5]	–	inhibition at 1 µM [4]: 41.1%
CNC(=O)c1ccc(N(C)C(=O)c2cc(NC(=O)c3cc(F)c(Cl)cc3Cl)[nH]n2)cc1 [Example 6-3]	–	inhibition at 0.3 µM [2]: 9.7%
COC(=O)COc1ccccc1CNC(=O)c1cc(NC(=O)c2cc(F)c(F)cc2Cl)[nH]n1 [Example 3-47]	< 100	–
COc1ccccc1NC(=O)c1cc(NC(=O)c2cc(F)c(F)cc2Cl)[nH]n1 [Example 3-27]	–	inhibition at 0.3 µM [5]: 41.5%
CCCCN(C(=O)c1cc(NC(=O)c2cc(F)c(F)cc2Cl)[nH]n1)C1CCN(C(=O)C(=O)OCC)CC1 [Example 1-112]	–	inhibition at 0.3 µM [5]: 49.9%
O=C(Nc1cccc2ncccc12)c1cc(NC(=O)c2cc(F)c(F)cc2Cl)[nH]n1 [Example 5-36]	–	inhibition rate (%) at a certain concentration: 17.8% (100)
O=C(N[C@H](CO)c1ccccc1)c1cc(NC(=O)c2cc(F)c(F)cc2Cl)[nH]n1 [Example 3-23]	–	inhibition at 1 µM [4]: 26.1%
COc1ccc(CNC(=O)c2cc(NC(=O)c3cc(F)c(F)cc3Cl)[nH]n2)cc1OC [Example 1-17]	< 100	–
COC(=O)CCNC(=O)c1ccc(CNC(=O)c2cc(NC(=O)c3cc(F)c(F)cc3Cl)[nH]n2)cc1 [Example 1-44]	< 100	–
O=C(Nc1cc(C(=O)N2C=Nc3cc(F)ccc3C2)n[nH]1)c1cc(F)c(F)cc1Cl [Example 6-45]	–	IC50 [3]: < 100 nM
COC(=O)c1ccc(N(C)C(=O)c2cc(NC(=O)c3cc(F)c(F)cc3Cl)[nH]n2)cc1 [Example 4-1, methyl 5-(2-chloro-4,5-difluorobenzoylamino)-1H-pyrazole-3-carbocylic acid (4-methoxycarbonyl-phenyl)-methyl-amide]	–	inhibition at 1 µM [4]: 13.8%
COc1ccccc1N(C)C(=O)c1cc(NC(=O)c2cc(F)c(F)cc2Cl)[nH]n1 [Example 3-28]	100 to 300	–
N#CC(NC(=O)c1cc(NC(=O)c2cc(F)c(F)cc2Cl)[nH]n1)c1ccccc1 (centres unmarked) [Example 1-75]	< 100	–
CCOC(=O)C(C)(C)c1cnc(NC(=O)c2cc(NC(=O)c3cc(F)c(F)cc3Cl)[nH]n2)c(OCC)c1 [Example 1-149]	–	inhibition rate (%) at a certain concentration: 20.8%(100)
O=C(NCc1ccc(C(F)(F)F)cc1)c1cc(NC(=O)c2cc(F)c(F)cc2Cl)[nH]n1 [Example 1-29]	< 100	–
O=C(NCc1csc(N2CCOCC2)n1)c1cc(NC(=O)c2cc(F)c(F)cc2Cl)[nH]n1 [Example 1-54]	< 100	–
COCCN(C(=O)c1cc(NC(=O)c2cc(F)c(F)cc2Cl)[nH]n1)c1ccc(C(=O)OC)cc1 [Example 4-47]	–	inhibition at 0.1 µM [4]: 1.2%
O=C(NCCc1ccncc1)c1cc(NC(=O)c2cc(F)c(F)cc2Cl)[nH]n1 [Example 1-141]	–	inhibition at 0.1 µM [4]: 31.4%
Cc1nc(CNC(=O)c2cc(NC(=O)c3cc(F)c(F)cc3Cl)[nH]n2)c(C)o1 [Example 1-162]	< 100	–
NC(=O)c1ccc(CNC(=O)c2cc(NC(=O)c3cc(F)c(F)cc3Cl)[nH]n2)cc1 [Example 1-122]	< 100	–
CCN(CCOC)C(=O)c1cc(NC(=O)c2cc(F)c(F)cc2Cl)[nH]n1 [Example 1-7]	100 to 300	–
